Patent US6605469B1, “Nucleic acid molecule encoding a cytochrome P-450 hydroxylase in brassinosteroid biosynthesis in plants” (Korea Kumho Petrochemical Co., Ltd., priority 2000, dated 2003)

Tests used:
[1] = tested on: anti-sense pra2 transgenic plants; assay: Complementation of dark-grown anti-sense pra2 transgenic plants with phytohormones and BR intermediates (hypocotyl length); format: in vivo, Nicotiana tabacum; details: for stimulatory effect on hypocotyls as % of the BL effect / rescue of the dwarfish hypocotyls in BR feeding experiment: anti-sense pra2 transgenic plants grown 5 days in complete darkness; for stimulatory effect on hypocotyls as % of the BL effect: 6-OHCS 10^-8 M, 6-deoxoCS 10^-8 M; for rescue of the dwarfish hypocotyls in BR feeding experiment: CS 10^-8 M
Procedure: Seeds of Nicotiana tabacum (Petit Havana SR1) were germinated and grown in sterile condition at 25° C. with a 16-hour photoperiod. The Arabidopsis thaliana ecotype Columbia (Col-0) was germinated and grown on 0.5×Murashige and Skoog medium containing 1% agar and Suc. All Arabidopsis cultures were maintained in a controlled environment culture room at 22° C. with the humidity of 70% and the photoperiod of 12 hours. Feeding experiments were also performed in the same culture conditions.
Plant growth regulators tested were BR, GA, auxin, cytokinine, abscisic acid, and salicylic acid. The BR hormones included the most oxidized brassinolide (BL, 10^−8 M) and various intermediates, such as campestanol (CN, 10^−6 M), 6-oxocampestanol (6-oxoCN, 10^−6 M), 6-deoxocathasterone (6-deoxoCT, 10^−6 M), cathasterone (CT, 10^−6 M), 6-deoxoteasterone (6-deoxoTE, 10^−6 M), teasterone (TE, 10^−6 M), 6-deoxotyphasterol (6-deoxoTY, 10^−7 M), typhasterol (TY, 10^−7 M), 6-deoxocastasterone (6-deoxoCS, 10^−8 M), 6α-hydroxycastasterone (6-OHCS, 10^−8 M), and castasterone (CS, 10^−8 M). Each BR intermediates were used at the concentrations as indicated in parentheses. […] Plants were germinated and grown in the presence of each BR intermediate for 4-7 days either in the light or in complete darkness. Hypocotyl lengths of 30-50 plants in each treatment were measured and averaged.

DDWF1 [2] = assay: DDWF1 activity assay with [4-14C]testosterone, TLC analysis; format: biochemical, pea; details: N-terminal truncated recombinant DDWF1
Procedure: Forty μl of the [4-^14C]testosterone (Amersham-Pharmacia, Cat. No. CFA129, 193 μCi/mg) was aliquoted, and the solvent was evaporated under gentle stream of N2 gas. Yeast microsomal fractions were prepared as described (Pompon et al., 1996). Thirty μg of microsomal fraction, 5 μg of Pra2 protein, and various amounts of the recombinant DDWF1 were used for each reaction, each with 175 μl of the reaction buffer (1M HEPES, pH 7.4, 0.1 mM EDTA, 0.5 mM GTP, 10 mM MgCl2). The mixture was transferred to the tube containing the lyophilized testosterone and incubated for 10 min at 37° C. Twenty-five μl of NADPH solution, prepared in the same reaction buffer, was then added to the mixture to a final concentration of 1 mM. The total mixture was further incubated for 30 min at 37° C. and terminated by adding 1 ml of ethyl acetate and vortexing for 30 sec. After centrifugation for 4 min at 15000×g, the upper layer was recovered and evaporated in chemical hood overnight. The dry pellet was dissolved in 20 μl of ethyl acetate, spotted on TLC on Silicagel 60 F254 (20×20 cm, Merck, Darmstadt, Germany), and developed in dichloromethane/acetone (4:1 by volume) and then in chloroform/ethyl acetate/ethanol (4:1:0.7 by volume) as described (Waxman, 1991).

DDWF1 [3] = assay: Substrate specificity of recombinant DDWF1 with BR intermediates, HPLC analysis; format: biochemical, pea; details: reaction mixtures analyzed on HPLC
Procedure: For HPLC analysis, BR intermediates were incubated with the DDWF1 as with testosterone, and the mixture was analyzed on the Waters 626 LC System and Photodiode Array Detector (Waters, Milford, Mass.). The reverse-phase Supelcosil LC-18 (250×4.6 mm, Supelco, Pa., USA) was used at a flow rate of 2 ml/min. The solvents used were 45% acetonitrile for the first 20 min, a gradient of 45% to 100% for the next 20 min, and pure acetonitrile for the last 10 min.

[4] = target: T34N Pra2-GST fusion protein (dominant negative form) [GST: P08515]
[5] = target: wild type Pra2-GST fusion protein [GST: P08515]
[6] = target: Q79L Pra2-GST fusion protein (constitutively active form) [GST: P08515]

CC(C)[C@H](C)[C@@H](O)[C@H](O)[C@@H](C)[C@H]1CC[C@H]2[C@@H]3C[C@H](O)[C@H]4C[C@H](O)[C@H](O)C[C@]4(C)[C@H]3CC[C@]12C [6-OHCS, 6α-hydroxycastasterone]
stimulatory effect on hypocotyls as % of the BL effect [1]: about 50%

C[C@]12CC[C@H]3[C@@H](CCC4=CC(=O)CC[C@@]43C)[C@@H]1CC[C@@H]2O [Testosterone]
substrate for DDWF1 (DDWF1 [2]): not the substrate

CC(C)[C@H](C)[C@@H](O)[C@H](O)[C@@H](C)[C@H]1CC[C@H]2[C@@H]3CC(=O)[C@H]4C[C@H](O)[C@H](O)C[C@]4(C)[C@H]3CC[C@]12C [CS, castasterone]
rescue of the dwarfish hypocotyls in BR feeding experiment ([1]; BL 10^-8 M): completely rescued | conversion by recombinant DDWF1 (substrate specificity) (DDWF1 [3]): not the substrate

CC(C)[C@H](C)[C@@H](O)[C@H](O)[C@@H](C)[C@H]1CC[C@H]2[C@@H]3COC(=O)[C@H]4C[C@H](O)[C@H](O)C[C@]4(C)[C@H]3CC[C@]12C [BL, brassinolide]
rescue of the dwarfish hypocotyls in BR feeding experiment ([1]; BL 10^-8 M): completely rescued | rescue of the dark-specific dwarfish hypocotyls ([1]; anti-sense pra2 transgenic tobacco grown in the dark, phytohormones at physiological concentrations, BL 10^-8 M): completely rescued | growth kinetics of transgenic versus control seedlings in the presence of BL ([1]; dark-grown seedlings, hypocotyl length over time, FIG. 4C): became similar | BL effect on transgenic plants grown in the light ([1]; transgenic plants grown in the light): No BL effects

gibberellins [GA]
stimulatory effect on hypocotyls relative to that by BL ([1]; anti-sense pra2 transgenic tobacco grown in the dark, phytohormones at physiological concentrations): 20-30%

CC(C)[C@H](C)[C@@H](O)[C@H](O)[C@@H](C)[C@H]1CC[C@H]2[C@@H]3CC[C@H]4C[C@H](O)[C@H](O)C[C@]4(C)[C@H]3CC[C@]12C [6-deoxoCS, 6-deoxocastasterone]
stimulatory effect on hypocotyls as % of the BL effect [1]: ~60%

CC(C)[C@H](C)[C@@H](O)[C@H](O)[C@@H](C)[C@H]1CC[C@H]2[C@@H]3CC(=O)[C@H]4C[C@H](O)CC[C@]4(C)[C@H]3CC[C@]12C [TY, typhasterol]
conversion by recombinant DDWF1 (substrate specificity) (DDWF1 [3]): converted to CS

B1: recombinant N-terminal truncated DDWF1, soluble form expressed in E. coli (protein)
chain: MALQVLTLPSWVTLFTTFAILLLFSRRLRRRQYNLPPGPKPWPIIGNFNLIGTLPHQSLHGLTQKYGPIMHLWFGSKRVVVGSTVEMAKAFLKTHDATLAGRPKFSAGKYTTYNYSDITWSQYGPYWRQARRMCLLELFSAKRLESYEYIRKQELHVFLHELFDSRNKTILLKDHLSSLSLNVISRMVLGRKYLEKVENSIISPDEFKNMLDELFLLNGILNIGDFIPWIHFLDFQGYVKRMKVLSKKFDGFMEHVLEEHIERRKGVKDYVAKDMVDVLLQLAEDPDLEVKLERHGVKAFTQDLIAGGTESSAVTVEWAISELIRKPEIFKKATEELDRVIGRERWVEEKDIANLPYVYAIAKETMRLHPVAPMLVPREAREDCNINGYDIPKGSLILVNTWTIARDSNVWDNPNEFMPERFLGKDIDVKGHDYELLPFGAGRRMCPGYPLGIKVIQSSLANLLHGFNWRLSDDVKKEDLNMEEIFGLSTPKKIHPG
conversion efficiency (DDWF1 hydroxylase activity on a testosterone intermediate, TLC) [4]: the conversion efficiency was slightly higher with the wild type and Q79L than with the T34N | conversion efficiency (DDWF1 hydroxylase activity on a testosterone intermediate, TLC) [5]: the conversion efficiency was slightly higher with the wild type and Q79L than with the T34N | conversion efficiency (DDWF1 hydroxylase activity on a testosterone intermediate, TLC) [6]: the conversion efficiency was slightly higher with the wild type and Q79L than with the T34N
